Experiments:
[1] = ETH 129 mediated cation transport into Quin-2 loaded POPC vesicles; assay type: biochemical; details: 1.0 mM CaCl2, no Val, FIG. 5
Description: Unilamellar vesicles loaded with Quin-2 were prepared from 1-palmitoyl-2-oleoyl-sn-glycerophosphatidylcholine (POPC) by freeze-thaw extrusion (Erdahl et al., 1994 Biophys. J. 66:1678; Erdahl et al., 1995 Biophys. J. 69:2350). The formation medium contained 5 mM Quin-2 (K+), 10 mM Hepes (K+), pH 7.00, and 100 mM KCl. A high internal K+ concentration was sought to allow the generation of membrane potentials of varying magnitude (see below). The preparations obtained were applied to Sephadex™ G-50 mini-columns (Pharmacia, Piscataway N.J.) and eluted by low speed centrifugation (Fry et al., 1978 Anal. Biochem. 90:809), to replace the external medium with a 10 mM Hepes buffer (Na+), pH 7.00 (Erdahl et al., 1994 Biophys. J. 66:1678; Erdahl et al., 1995 Biophys. J. 69:2350). The nominal concentration of POPC in final preparations was determined as lipid phosphorus (Bartlett, 1959 J Biol. Chem. 234:466) and was near 80 mM. The average diameter of these vesicles was 71 nm as determined by freeze-fracture electron microscopy (Chapman et al., 1990 Chem. Phys. Lipids 55:73). They contained entrapped K+ at approximately 125 mM, as determined by atomic absorption spectroscopy, and Quin-2 at approximately 6 mM. The latter value was determined by titrating lysed vesicles with a standard solution of CaCl2 and was about one third of the expected value (Erdahl et al., 1995 Bipohys. J. 69:3250). The high solute level in the formation medium reduced the efficiency of Quin-2 entrapment by reducing the effectiveness of a freeze-thaw driven solute concentrating mechanism that normally elevates the internal concentrations of solutes, relative to the external medium (Chapman et al., 1990 Chem. Phys. Lipids 55:73; Chapman et al., 1990 Chem. Phys. Lipids 60:201).
POPC vesicles containing Quin-2 were utilized at a nominal phospholipid concentration of 1.0 mM, and at 25° C. The external medium contained polyvalent cation salts as described below, 100 mM NaCl, or mixtures of NaCl and KCl totaling […], and 10 mM Hepes, pH 7.00, unless otherwise noted. The medium pH was adjusted with NaOH that had been passed over Chelex 100 columns to remove contaminating cations (Erdahl et al., 1994 Biophys. J. 66:1678). In most cases an inside negative membrane electrical potential was present during the experiments. This was generated by the presence of 0.5 μM valinomycin (Val), which transports K+ out of the vesicles electrogenically (Erdahl et al., 1994 Biophys. J. 66:1678). The magnitude of the potential was controlled by varying the concentration ratio of Na+ to K+ in the external medium. A TPP+electrode was used to measure the potential (Broekemeier et al, 1998 Biochem. 37:13059), and thereby to verify that the calculated values were obtained. For these purposes the incubation medium contained 2.0 μM TPP.Cl and the entrapped volume was taken to be 2.02 μl/ml at a nominal POPC concentration of 1.0 mM (Chapman et al., 1990 Chem. Phys. Lipids 55:73).
Val was omitted when an imposed membrane potential was not desired, or in some cases 5 μM of the protonophore carbonyl cyanide m-chlorophenylhydrazone (CCP) was present instead of Val.
The transport of polyvalent cations was monitored by difference absorbance measurements which detected formation of the Quin-2:cation complex within the vesicle lumen. An Aminco DW2a spectrophotometer operated in the dual wavelength mode was employed. In addition, an Oriel No. 59800 band pass filter was used between the cuvette and the beam scrambler-photomultiplier assembly to prevent detection of the fluorescent light emitted by Quin-2. The sample wavelength for all cations was 264 nm. The reference wavelengths were at an isosbestic point in the Quin-2/Quin-2:cation complex difference spectrum of interest. These wavelengths varied slightly from cation to cation, as previously described (Erdahl et al., 1996 Biochem. 35:13817). […]

[2] = tested on: yeast mitochondria; assay: Membrane potential ΔΨ of isolated yeast mitochondria (safranin O); assay type: biochemical, Saccharomyces cerevisiae; details: for effect on the depression of ΔΨ produced by ETH 129 plus Ca2+: 60 μM CaCl2, 3.6 μM ETH 129
Description: The yeast strain W303-1A (Saccharomyces cerevisiae) was grown aerobically at 30° C. in a medium containing 2% lactate, 1% yeast extract, 2% peptone, 0.05% dextrose, and 0.01% adenine at pH 5.0, and cells were harvested during the logarithmic phase (A600=1.8−2.2). Mitochondria were isolated from spheroplasts as previously described (Jung et al., 1997 J. Biol. Chem. 272:21104), except that 0.6 M sucrose was used in the homogenization medium instead of 0.6 M mannitol (Daum et al., 1982 J. Biol. Chem. 257:13028). The resulting preparations were maintained on ice and were suspended in 0.6 M mannitol 20 mM HEPES (K+) (pH 6.8), containing 0.75 mg/ml BSA and 0.1 mM EGTA. Protein concentration was determined by a reduced volume Biuret method in which 50 μl of the final preparation were solubilized by adding an equal volume of 10% deoxycholate (Na+), with 0.4 ml of Biuret reagent added to the resulting mixture. BSA was employed as the standard.
Unless otherwise noted, mitochondria were incubated at 1 mg protein/ml and at approximately 25° C. in a medium that contained 0.6 M mannitol, 10 mM Pi (K+), 10 mM Hepes (TEA+), pH 7.2, plus 1 mM ethanol as an oxidizable substrate. Compounds having a low solubility in water were added from stock solutions prepared in methanol or DMSO. Ca2+ transport and membrane potential were monitored using the indicating dyes antipyrylazo III (ΔA720-790) and safranin O (ΔA511-533), respectively (Akerman et al., 1976 FEBS Lett. 68:191; Scarpa et al., 1978 Biochem. 17:1378). An SLM Aminco DW-2C spectrophotometer operated in the dual wavelength mode was employed for these purposes. The same instrument, operated in split beam mode, was used to monitor mitochondrial swelling as a decrease in apparent absorbance of mitochondrial suspensions at 540 nm. Oxygen consumption data were obtained using a Clark-type electrode in parallel experiments. Atomic absorption spectroscopy was utilized to monitor the transport of other cations by yeast mitochondria. Briefly, samples were taken at appropriate times and the mitochondria were rapidly sedimented in a microcentrifuge. After carefully removing supernatants, the pellets were solubilized with 2 N percholoric acid (overnight) and centrifuged a second time. The resulting supernatants were diluted with an appropriate volume of distilled water and the concentration of the cation in question was subsequently determined.

[3] = tested on: isolated yeast mitochondria; assay: Ca2+ transport in isolated yeast mitochondria expressing aequorin (luminescence); assay type: biochemical, Saccharomyces cerevisiae; details: for Rate of increase in matrix Ca^2+ concentration / % of Control: external free Ca^2+ 0.8 μM, agent 1 μM; for Rate of increase in matrix Ca^2+ concentration: triplicate; for % of Control: rate of increase in matrix Ca^2+
Description: For preculture, the transformant was inoculated into 50 ml of SC-U plus 2% glucose, and incubated in an air shaker at 180 rpm and 30° C. At 24 hr, the preculture was transferred to 500 ml of a medium containing 1% yeast extract, 2% peptone, 2% lactate, 1% galactose, 0.012% adenine, pH 5 w/NaOH, and growth was continued under conditions which were otherwise the same. Cells were harvested after an additional 24 hr, spheroplasts were prepared using zymolyase, and mitochondria were isolated by the method of Daum et al. (1982) as previously described (Jung et al., 1997). The final pellet was resuspended at ˜20 mg protein/ml in 0.6 M mannitol, 20 mM HEPES (K^+ salt, pH 6.8). Apoaequorin in the intact or disrupted mitochondria was reconstituted by incubation with coelenterazine as described above for cells.
For most experiments, the mitochondria were present at 0.4 mg protein/ml in a standard medium that contained 0.3 M KCl, 20 mM HEPES, (K^+ salt, pH 7.10), 10 mM KH2PO4, 2 mM EGTA, and 2 mM MgCl2. Other additions are described in greater detail below. Ca^2+ buffers were formed by adding various amounts of CaCl2 to this EGTA containing medium. The free Ca^2+ concentrations which resulted were calculated using a computer program (Brooks et al., 1992 Anal. Biochem. 201:119).
Luminescence measurements were carried out in 6×50 mm culture tubes, using a total volume of 0.3 ml, and were started by injection of 5-20 μl of mitochondria or cells. A SAI model 3000 integrating photometer was employed, with AJD sampling at 0.4 seconds intervals driven by Asyst software. Values were transformed into corresponding Ca^2+ concentrations by computer assisted calculations based upon published calibration methods (Allen et al., 1977 Science 195:996; Brini et al., 1995 J. Biol. Chem. 270:9896). For each value, the ratio of observed luminescence (L) to the potential luminescence remaining (Lmax) was calculated, and compared to a calibration curve which relates this ratio to the free Ca^2+ concentration. Thus, complete calibrated progress curves were generated. The total luminescence available initially (Ltotal) must be known and was determined in separate experiments, wherein a saturating Ca^2+ concentration (20 μM) is employed to discharge the aequorin completely. This value allows Lmax to be calculated at any time, as Ltotal minus the sum of luminescence that already occurred.
The calibration data were obtained at an ionic strength of 335 mM and in the presence of 1 mM Mg^2+, to mimic conditions in the mitochondrial matrix, because both factors influence the affinity of aequorin for Ca2+ (Cobbold et al., 1987 Biochem. J. 248:313). Luminescence values were corrected for low background values that are obtained when Ca^2+ is absent before conducting further calculations.

[4] = tested on: intact yeast; assay: Aequorin luminescence in intact yeast cells expressing mitochondrially targeted aequorin; assay type: cell-based, Saccharomyces cerevisiae; details: intact cells, FIG. 19B
Description: Yeast cells (strain X4003-5B; leu2, ade1, his4, met2, ura3, trp5, gal1) obtained from the Yeast Genetic Stock Center (Berkeley, Calif.) were transformed with the pYES2 plasmid, encoding the human mitochondrially targeted apoaequorin fragment, using the lithium acetate method (Sambrook et al., 1989), and INVSc1 cells were transformed with the pGK plasmid encoding the yeast mitochondrially targeted apoaequorin fragment. Selection was carried out on plates prepared with synthetic complete medium minus uracil (SC-U) (Sherman, 1991 Meths. Enzymol. 194:3). Transformed colonies were cultured in a small volume of SC-U and assayed for aequorin activity in vitro as described by Nakajima et al. (1991 Proc. Nat. Acad. Sci. USA 88:6878). Briefly, the cells were harvested by centrifugation, resuspended in lysis buffer (50 mM Tris, 2 mM EDTA, 0.5 mM PMSF, pH 8 w/NaOH), disrupted by vortexing with glass beads, and then treated with 0.1% Triton X-100 to release apoaequorin from the mitochondria. Following centrifugation, 200 μl aliquots of the supernatants were incubated with coelenterazine (2.5 μM) and 2-mercaptoethanol (2 μl), for ˜3 hr while standing on ice, to form the luminescent aequorin from its apoprotein. The coelenterazine cofactor is highly hydrophobic and readily permeates yeast cell membranes (Nakajima et al., 1991) such that reconstitution was conducted without disrupting the cells in some cases. 2-mercaptoethanol was omitted when intact cells were employed. A transformant which yielded high luminescence (named X4003-5B-AEQmito1) was selected for further characterization.
For preculture, the transformant was inoculated into 50 ml of SC-U plus 2% glucose, and incubated in an air shaker at 180 rpm and 30° C. At 24 hr, the preculture was transferred to 500 ml of a medium containing 1% yeast extract, 2% peptone, 2% lactate, 1% galactose, 0.012% adenine, pH 5 w/NaOH, and growth was continued under conditions which were otherwise the same. […]
Luminescence measurements were carried out in 6×50 mm culture tubes, using a total volume of 0.3 ml, and were started by injection of 5-20 μl of mitochondria or cells. […] For each value, the ratio of observed luminescence (L) to the potential luminescence remaining (Lmax) was calculated, and compared to a calibration curve which relates this ratio to the free Ca^2+ concentration. […] The total luminescence available initially (Ltotal) must be known and was determined in separate experiments, wherein a saturating Ca^2+ concentration (20 μM) is employed to discharge the aequorin completely. This value allows Lmax to be calculated at any time, as Ltotal minus the sum of luminescence that already occurred. […]

Molecule | influence on activity of the transporter in yeast mitochondria [3] | Rate of increase in matrix Ca^2+ concentration [3] | % of Control [3] [%] | other results
N#CC(C#N)=NNc1cccc(Cl)c1 [CCP, carbonyl cyanide m-chlorophenylhydrazone] |  |  |  | activation of ETH 129 mediated Ca2+ transport [1]: rate enhancement increasing progressively as the CCP concentration rose to 5 μM
O=C(O)CN(CCOCCOCCN(CC(=O)O)CC(=O)O)CC(=O)O [EGTA] |  |  |  | effect on the depression of ΔΨ produced by ETH 129 plus Ca2+ [2]: reversed
CO[C@@H]1C[C@@H](C[C@H]2CC[C@H](C)[C@H]([C@@H](C)C(=O)O)O2)O[C@]2(O[C@](C)([C@H]3CC[C@@](C)([C@@H]4O[C@@H]([C@H]5O[C@@](O)(CO)[C@H](C)C[C@@H]5C)C[C@@H]4C)O3)C[C@H]2C)[C@@H]1C [Nigericin] | not influenced | 2.17 ± .12 nM/s | 111 | 
N.N.N.N.N.N.N.N.N.N.N.N.N.N.[Cl-].[Cl-].[Cl-].[Cl-].[Cl-].[Cl-].[O-2].[O-2].[Ru+3].[Ru+3].[Ru+4] [Ruthenium red] | not influenced | 2.21 ± .23 nM/s | 113 | 
CC(C)[C@@H]1NC(=O)[C@H](C)OC(=O)[C@@H](C(C)C)NC(=O)[C@@H](C(C)C)OC(=O)[C@H](C(C)C)NC(=O)[C@H](C)OC(=O)[C@@H](C(C)C)NC(=O)[C@@H](C(C)C)OC(=O)[C@H](C(C)C)NC(=O)[C@H](C)OC(=O)[C@@H](C(C)C)NC(=O)[C@@H](C(C)C)OC1=O [Valinomycin] | not influenced | 2.32 ± .31 nM/s | 118 | 
C=C1[C@@H]2CC[C@H]3[C@]4(C)C[C@H](O[C@@H]5O[C@H](CO)[C@@H](OS(=O)(=O)O)[C@H](OS(=O)(=O)O)[C@H]5OC(=O)CC(C)C)CC(C(=O)O)(C(=O)O)[C@H]4CC[C@]3(C2)[C@H]1O [carboxyatractyloside] |  |  |  | effect on the depression of ΔΨ produced by ETH 129 plus Ca2+ [2]: no effect
C[C@H](CCC(=O)O)C[C@H](C)C[C@H](C)C(=O)/C=C(\O)[C@H](C)C[C@H](C)C/C=C/[C@@H](C)[C@@H](O)[C@@H](C)[C@@H](O)C[C@@H]1CC[C@@](C)([C@H]2CC[C@@](C)([C@@H](C)O)O2)O1 [ionomycin] |  |  |  | effect on ΔΨ, ionophore together with Ca2+ ([2]; BSA absent, CaCl2 plus ionophore, FIG. 11C): not duplicated
coelenterazine n |  |  |  | luminescence intensity as aequorin cofactor vs parent coelenterazine [4]: comparable to that of the parent

— patent US20020090619A1, “Methods for identifying mitochondrial divalent cation transporters” (priority 2000, published 2002)
